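Cultured in 96-well plates, cells were exposed to test compound for 48 hours across five concentrations. At the GI50, growth is halved.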 Activity calls are given as the source filed them. Rule as the data show it: active = GI50 up to about 1.1 µM and inactive = higher.

Consider nine compounds from ChEMBL document CHEMBL1201862, “PubChem BioAssay data set” (2004).

What all share (test): growth of human tumour cells (NCI), 48 h
Assay [1] deals with NCI/ADR-RES.
In assay [2] the test system is ACHN.
Assay [3] deals with HCT-116.
For assay [4], the system named is LOX IMVI.
Assay [5] relates to MDA-MB-435.
Assay [6] relates to COLO 205.
For assay [7], the system named is SK-MEL-5.
For assay [8], the system named is NCI-H23.
The test system of assay [9] is MDA-MB-231.
For assay [10], the system named is SF-539.
Assay [11] deals with M14.
Assay [12] relates to SNB-75.
The subject of assay [13] is SF-268.
Assay [14] concerns EKVX.
Assay [15] deals with Malme-3M.
Assay [16] deals with UACC-257.
For assay [17], the system named is SR.
Assay [18] deals with MDA-N.
In assay [19] the test system is SW-620.
In assay [20] the test system is KM12.

On to `Cc1nc(N)nc(S)c1CCCNc1ccccc1`, for which the GI50 in assay [1] is > 100 µM (inactive); in assay [2] it was 90.2 µM (inactive); in assay [3] it was 79.6 µM (inactive); in [4], 54.5 µM (inactive); in assay [5] it was 74 µM (inactive); in assay [6] it was 23.5 µM (inactive). In addition, the GI50 in assay [7] is 27.5 µM (inactive); in assay [8], 88.5 µM (inactive); in assay [9], > 100 µM (inactive); in assay [10], 95.7 µM (inactive); in assay [11], 52.4 µM (inactive); in assay [12], > 100 µM (inactive). The GI50 in assay [13] is 62.5 µM (inactive); in assay [14] it was 60 µM (inactive); in [15], 35.6 µM (inactive); in [16], 26.9 µM (inactive); in assay [17], 3.6 µM (inactive); in assay [18], 52 µM (inactive). Moreover, the GI50 in assay [19] was > 100 µM (inactive); in [20] it was 76.7 µM (inactive).

For `CCCCn1c2c(n(CCCC)c1=S)-c1c(n(CCCC)c(=S)n1CCCC)SSc1c(n(CCCC)c(=S)n1CCCC)-c1c(n(CCCC)c(=S)n1CCCC)SSc1c(n(CCCC)c(=S)n1CCCC)-c1c(n(CCCC)c(=S)n1CCCC)SS2`, the GI50 is > 50 µM (inactive) in [1]; 2.36 µM (inactive) in assay [2]; 4.72 µM (inactive) in assay [3]; 4 µM (inactive) in [4]; 11.3 µM (inactive) in assay [5]; 2.64 µM (inactive) in assay [6]. The GI50 in assay [7] was 12 µM (inactive); in assay [8], 16.3 µM (inactive); in assay [9], 2.24 µM (inactive); in assay [10], 4.31 µM (inactive); in assay [11] it was 13.4 µM (inactive); in [12], 10.1 µM (inactive). In addition, the GI50 in assay [13] was 5.24 µM (inactive); in assay [14], 5.37 µM (inactive); in assay [15], 1.57 µM (inactive); in assay [16] it was 2.98 µM (inactive); in [17], 1.88 µM (inactive); in assay [18], 7.41 µM (inactive). Also, the figures for the GI50 in assay [19] and in [20] were 1.69 µM (inactive) and 19.4 µM (inactive), respectively.

With `Cc1ccc2nc(/C=N/c3ccc(Cl)cc3)cc(C)c2c1`, the GI50 was 3.44 µM (inactive) in assay [1]; 0.128 µM (active) in assay [2]; 1.08 µM (active) in assay [3]; 0.329 µM (active) in assay [4]; 1.04 µM (active) in [5]; 1.16 µM (inactive) in assay [6]. For the same compound, the GI50 in [7] was 2.29 µM (inactive); in assay [8] it was 9.91 µM (inactive); in [9], 4.94 µM (inactive); in assay [10], 2.12 µM (inactive); in assay [11], 0.212 µM (active); in assay [12], 17 µM (inactive). In addition, the GI50 in [13] was 14.7 µM (inactive); in assay [14], 14.4 µM (inactive); in assay [15] it was 2.44 µM (inactive); in [16], 4.38 µM (inactive); in assay [17], 1.88 µM (inactive); in assay [18] it was 1.3 µM (inactive). Further, the GI50 in [19] is 2.07 µM (inactive); in assay [20] it was 0.269 µM (active).

Turning to `Cc1ccc(NC(=S)C#N)cc1Cl`, the GI50 in assay [1] is 31 µM (inactive); in assay [2], 37.7 µM (inactive); in [3], 36.6 µM (inactive); in [4], 42.3 µM (inactive); in [5], 41.8 µM (inactive); in assay [6] it was 20.9 µM (inactive). Moreover, the GI50 in assay [7] is 24 µM (inactive); in [8] it was 33.8 µM (inactive); in [9], 88.3 µM (inactive); in assay [10], 24.2 µM (inactive); in assay [11], 36.9 µM (inactive); in [12], 21.5 µM (inactive). Moreover, the GI50 in assay [13] was 36.9 µM (inactive); in assay [14], 42.2 µM (inactive); in [15], 23.4 µM (inactive); in assay [16], 46.3 µM (inactive); in [17], 27 µM (inactive); in assay [18] it was 41.7 µM (inactive). For the same compound, the figures for the GI50 in [19] and in assay [20] were 48.8 µM (inactive) and 37.8 µM (inactive), respectively.

As to `COc1cc(CSc2ccc(O)cc2)cc(OC)c1OC`, the GI50 in assay [1] was 24.7 µM (inactive); in assay [2] it was 31.3 µM (inactive); in [3] it was 53 µM (inactive); in assay [4], 59.8 µM (inactive); in [5] it was 27.6 µM (inactive); in assay [6], 67.8 µM (inactive). The GI50 in [7] was 18 µM (inactive); in [8], 28.6 µM (inactive); in assay [9], 43.2 µM (inactive); in assay [10], 53.3 µM (inactive); in [11] it was 36.4 µM (inactive); in assay [12] it was 23.1 µM (inactive). The GI50 is 53.3 µM (inactive) in assay [13]; 39.8 µM (inactive) in assay [14]; 27.5 µM (inactive) in [15]; 39 µM (inactive) in [16]; 24.1 µM (inactive) in assay [17]; 30.5 µM (inactive) in assay [18]. Also, the GI50 in [19] was > 100 µM (inactive); in assay [20], 30.2 µM (inactive).

`CCOC(=O)/C=C(/C(=O)OCC)n1cc(C)c(=O)[nH]c1=O`: the GI50 in assay [1] was 10.9 µM (inactive); in assay [2] it was 2.72 µM (inactive); in [3], 2.43 µM (inactive); in assay [4], 2.19 µM (inactive); in assay [5], 3.07 µM (inactive); in assay [6], 1.81 µM (inactive). Besides, the GI50 in assay [7] was 8.81 µM (inactive); in assay [8], 5.56 µM (inactive); in assay [9], 4.51 µM (inactive); in [10], 13.2 µM (inactive); in assay [11], 1.95 µM (inactive); in assay [12], 10.3 µM (inactive). In addition, the GI50 in assay [13] was 8.65 µM (inactive); in assay [14] it was 3.33 µM (inactive); in [15] it was 2.29 µM (inactive); in [16] it was 12.9 µM (inactive); in [17], 1.92 µM (inactive); in [18], 5.83 µM (inactive). The values for the GI50 in assay [19] and in assay [20] were 2.01 µM (inactive) and 14.2 µM (inactive), respectively.

`Cc1cc(C)c2c(O)cc(-c3ccc4ccccc4c3)nc2n1`: the GI50 in [1] is 17.1 µM (inactive); in assay [2], 46 µM (inactive); in assay [3], 13.8 µM (inactive); in assay [4], 17.9 µM (inactive); in assay [5], 2.92 µM (inactive); in [6], 18.3 µM (inactive). Further, the GI50 in assay [7] was 2.7 µM (inactive); in assay [8], 30.8 µM (inactive); in assay [9] it was 23.1 µM (inactive); in [10], 30.8 µM (inactive); in [11], 17.3 µM (inactive); in [12] it was 15.8 µM (inactive). Besides, the GI50 is 57.3 µM (inactive) in [13]; 29.5 µM (inactive) in assay [14]; 21.6 µM (inactive) in assay [15]; 21.2 µM (inactive) in assay [16]; 5.98 µM (inactive) in assay [17]; 3.34 µM (inactive) in assay [18]. Also, the GI50 in [19] was 15.2 µM (inactive); in assay [20], 6.04 µM (inactive).

Consider `CCCCCNC(=O)c1cc2cc(CCl)ccc2oc1=O`, for which the GI50 in assay [1] was 16.4 µM (inactive); in [2] it was 2.01 µM (inactive); in assay [3], 3.84 µM (inactive); in assay [4], 17.3 µM (inactive); in assay [5], 9.27 µM (inactive); in [6], 1.33 µM (inactive). Besides, the GI50 in assay [7] is 16.6 µM (inactive); in assay [8] it was 2.62 µM (inactive); in [9], 1.97 µM (inactive); in assay [10], 2.67 µM (inactive); in assay [11] it was 9.12 µM (inactive); in assay [12] it was 4.44 µM (inactive). In addition, the GI50 is 3.19 µM (inactive) in assay [13]; 4.41 µM (inactive) in [14]; 2.36 µM (inactive) in [15]; 2.04 µM (inactive) in assay [16]; 5.38 µM (inactive) in assay [17]; 9.42 µM (inactive) in [18]. Further, the GI50 in assay [19] is > 49.7 µM (inactive); in [20], 10.2 µM (inactive).

Regarding `COc1ccc2[nH]c(Cl)c(/C=C3/C(=O)N(c4ccccc4)c4ccccc43)c2c1`, the GI50 was 2.1 µM (inactive) in assay [1]; 7.57 µM (inactive) in [2]; 5.07 µM (inactive) in assay [3]; 3.29 µM (inactive) in assay [4]; 1.46 µM (inactive) in assay [5]; 2.18 µM (inactive) in assay [6]. In addition, the GI50 in assay [7] is 2.28 µM (inactive); in assay [8], 4.06 µM (inactive); in [9], 6.35 µM (inactive); in assay [10] it was 3.03 µM (inactive); in assay [11], 3.66 µM (inactive); in assay [12], 12.3 µM (inactive). Moreover, the GI50 in assay [13] was 5.08 µM (inactive); in [14] it was 7.08 µM (inactive); in assay [15], 6.76 µM (inactive); in assay [16] it was 7.13 µM (inactive); in assay [17], 2.65 µM (inactive); in assay [18], 1.6 µM (inactive). The GI50 in assay [19] was 3.78 µM (inactive); in [20] it was 3.25 µM (inactive).
